Assay results: paper PMC10641921, “Optimization of mTOR Inhibitors Using Property-Based Drug Design and Free–Wilson Analysis for Improved In Vivo Efficacy” (ACS Medicinal Chemistry Letters, 2023)
In brackets after ≈: the same amount, converted by molar mass. Like-named read-outs stand apart in the source and are kept apart here.

Key:
[1] = system: pAKT-S473 in PC-3 cells (TORC2); experiment: Cellular p-AKT (ser473) AlphaScreen assay in PC-3 cells (TORC2 activity); type: cell-based, human; settings: for IC50: read-out: pAKT S473 Cell IC50
Description: The target product profile for 1 and the next-generation analogs described here was for a dual inhibitor against both TORC1 and TORC2.
FRAP1 (mTOR) recombinant protein and GFP-4E-BP1 were purchased from Invitrogen (Carlsbad, CA, US).
The kinase activity assay was conducted in 50 mM Hepes buffer containing 10 mM MgCl2, 0.01% Brij, 0.2 mM EDTA, 2 mM DTT and 1% DMSO (after compound addition) at pH 7.3.
The IC50 value for each compound was determined in the presence of compound (various concentrations, from 0 to 10 μM) and a fixed amount of ATP (50 μM, final concentration), substrate GFP-4E-BP1 (400 nM, final concentration). The enzymatic reaction was initiated by adding FRAP1 (mTOR) (2 nM, final concentration). The assay was conducted at room temperature (~22 °C). After 30 min, the enzymatic reaction was stopped using Tb-anti-p4E-BP1 (2 nM final concentration, Invitrogen) and EDTA (20 mM final concentration, Sigma) in TR-FRET dilution buffer provided by Invitrogen. All the reagents were dispensed using a Multidrop Combi reagent dispenser (ThermoFisher Scientific, Waltham, […]
The release of product was detected using a BMG PHERAstar plate reader (BMG LABTECH, Ortenberg, Germany) and the Lantha Screen module (337 nm excitation wavelength) and measuring the ratio of fluorescence 520/490 nm (emission wavelengths). Experimental data was fitted using Eq. (1):
Vi and Vo are the rates of the enzyme activity in the presence and in the absence of inhibitor; n is the Hill coefficient; I is the free inhibitor concentration; IC 50 is a measure of potency that is equivalent to a […]
Cellular p-AKT (ser473) assay in PC-3 cells
PC-3 cells (PTEN deleted, human prostate cell line) were maintained in F12K media with 10% heat-inactivated fetal bovine serum (FBS) in 37 °C, 5% CO2 incubator. This method describes the procedure […]
from Perkin Elmer (catalog# TGRAS500). On day 1, 50,000 PC-3 cells were plated in 160 µL complete […]
Plates were placed in 37 °C, 5%
CO2 incubator for 24 h. On day 2, all media was removed and replaced with 160 µL starvation media which is F12K media (no FBS) and 0.1% BSA. Plates are placed in 37 °C, 5% CO2 incubator for 16 h. On day 3, compounds were both solubilized and serially diluted in DMSO and added to a secondary plate containing starvation media. 40 µL of compound/starvation media were added to the 160 µL in cell plate and plates were placed back in the incubator for 1 h. Cells were then activated by adding 22 µL FBS (for a final concentration of 10% FBS) for 10 min in the incubator. Media was removed from the well and cells were lysed in 100 µL SureFire kit lysis buffer and then shake n for 15 min at 900 rpm. AlphaScreen […]
assay was performed according to manufacturer’s instructions. 4 µL of lysate was added to PerkinElmer 96-well Proxiplate then 5 µL of Reaction Buffer plus Activation Buffer. Plates were shaken for 2 h at room temperature. 2 µL of Donor Beads in Dilution Buffer were added to the plate and the plate was shaken for 2 h at room temperature. The plate was read using BMG Labtech PHERAstar using AlphaScreen settings. Each analog was run in duplicate wells and a single IC50 value was calculated in […]

Rat PK (iv and po) = type: in vivo; settings: for frac. abs.: estimated from %F, Cl and Qh = 70 mL min^–1 kg^–1; for bioavailability: in vivo, 4 mg/kg; for bioavailability / Cl / Vd: iv 1 mpk; for bioavailability / Cmax: po 4 mpk in 0.5% methylcellulose
Source text: This was an early indication that the strategy of increasing potency while lowering lipophilicity would allow us to meet our goal of improving prospects for favorable PK and dose.

PI3Kα = PI3Kα enzyme selectivity (PI3Kα IC50 over mTOR IC50); type: biochemical; settings: ratio of PI3Kα enzyme IC50 over mTOR enzyme IC50
[2] = system: pS6K-T389 in PC-3 cells (TORC1); experiment: Cellular pS6K-T389 assay in PC-3 cells (TORC1 activity); type: cell-based; settings: Homo sapiens, read-out: pS6K-T389 cell IC50
Source text: Our previously reported inhibitor 1 (Figure 1) was potent against mTOR and selective against the off-target PI3Kα.[10]−[12] The target product profile for 1 and the next-generation analogs described here was for a dual inhibitor against both TORC1 and TORC2. […] We undertook a campaign to identify analogs that had improved prospects for a lower efficacious dose while retaining the favorable selectivity and safety profile of compound 1.

Thermodynamic solubility = type: physicochemical
[3] = Human liver microsome intrinsic clearance; type: in vitro ADME
CYP2C8 = biological target: T1, CYP2C8 (Homo sapiens, UniProt P10632); experiment: CYP inhibition, 2C8; type: in vitro ADME; settings: most potently inhibited CYP isoform
T1 sequence (P10632 1-490): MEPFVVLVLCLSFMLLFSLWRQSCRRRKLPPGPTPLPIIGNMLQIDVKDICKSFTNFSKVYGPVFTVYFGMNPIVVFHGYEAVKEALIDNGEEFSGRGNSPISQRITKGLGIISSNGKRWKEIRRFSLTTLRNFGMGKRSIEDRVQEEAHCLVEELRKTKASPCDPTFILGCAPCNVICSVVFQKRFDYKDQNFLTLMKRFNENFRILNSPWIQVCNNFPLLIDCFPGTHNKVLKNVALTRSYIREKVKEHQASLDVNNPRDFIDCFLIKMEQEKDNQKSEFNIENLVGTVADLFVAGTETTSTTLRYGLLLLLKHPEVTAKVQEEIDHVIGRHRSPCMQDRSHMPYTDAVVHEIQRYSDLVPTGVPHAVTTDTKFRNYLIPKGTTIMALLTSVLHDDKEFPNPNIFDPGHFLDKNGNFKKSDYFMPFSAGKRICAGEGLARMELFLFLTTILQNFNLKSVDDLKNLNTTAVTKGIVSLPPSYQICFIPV

[4] = Homo sapiens, PC-3, PC-3 cell line
[5] = Homo sapiens, p-AKT S473, PC-3 cells, mean of N runs, read-out: Cell pEC50 (converted)
[6] = pH 1.2, read-out: Thermodynamic solubility at pH 1.2
[7] = pH 6.8, read-out: Thermodynamic solubility at pH 6.8

Compound	IC50 [1, 4]	EC50 [1, 5]	IC50 ([1]; PC-3 cell line)	frac. abs. (Rat PK (iv and po))	bioavailability (Rat PK (iv and po))	Cl (Rat PK (iv and po))	Vd (Rat PK (iv and po))	Cmax (Rat PK (iv and po))	PI3Ka sel. (PI3Kα)	PI3Kα Sel (PI3Kα; Table 2, unit not given)	IC50 [2]	solubility thermodynamic (Thermodynamic solubility; [6])	solubility thermodynamic (Thermodynamic solubility; [7])	HLM Clint ([3]; apparent intrinsic clearance, scaled)	IC50 (CYP2C8)	EC50 ([1]; Homo sapiens, PC-3, Figure 1 profile, read-out: cell EC50)	PI3Kα Sel (PI3Kα)	CLint scaled ([3]; human, liver microsomes, Figure 1 profile, read-out: HLM Clint)
C[C@@]12COCCN1c1nc(-c3cccc4[nH]ccc34)ncc1N([C@H]1CC[C@H](O)CC1)C2=O [14c]	10 nM	12.6 nM	13 nM	100%	94%	7.0 mL min^–1 kg^–1	1.3 L/kg	1600 nM	240 ×	240	6 nM	3960 µM (≈ 1720 µg/mL)	6 µM (≈ 2.6 µg/mL)	6 mL min^–1 kg^–1	21 µM			
CC(F)(F)CN1C(=O)[C@]2(C)COCCN2c2nc(-c3ccc(NC(=O)NC4CC4)cc3)ncc21 [compound 1]	70 nM	70.8 nM		22%	20%	6.9 mL min^–1 kg^–1	0.95 L/kg	320 nM			49 nM	340 µM (≈ 161 µg/mL)	0.6 µM (≈ 0.283 µg/mL)		7 µM	70 nM	54 x	10 mL/min/kg
